Values of other authors as cited in patent publication US20220273822A1, “ANIMAL MODEL OF IDIOPATHIC PULMONARY FIBROSIS, ITS CONSTRUCTION METHOD AND USE” (National Institute of Biological Sciences, Beijing, priority 2019, published 2022).

Conditions: IPF

Row | Compound | mortality | survival time
1 | Cc1ccc(=O)n(-c2ccccc2)c1 [pirfenidone] | tendency of reducing mortality | failed to show significantly increased survival time
2 | COC(=O)c1ccc2c(c1)NC(=O)/C2=C(\Nc1ccc(N(C)C(=O)CN2CCN(C)CC2)cc1)c1ccccc1 [nintedanib] | tendency of reducing mortality | failed to show significantly increased survival time
